# Data taken from ChEMBL document CHEMBL4346676, “Base promoted synthesis of novel indole-dithiocarbamate compounds as potential anti-inflammatory therapeutic agents for treatment of acute lung injury” (Eur J Med Chem, 2019).
# Calls of active or inactive are those of the source. The rule behind the calls is not given here.
# What was measured:
# Peritoneal macrophage [1] = test: Cytotoxicity against C57BL/6J mouse Primary peritoneal macrophages assessed as cell viability at 1 uM measured after 24 hrs by MTT assay; format: cell-based
# Peritoneal macrophage [2] = test: Antiinflammatory activity in C57BL/6J mouse Primary peritoneal macrophages assessed as inhibition of LPS-stimulated IL-6 expression preincubated for 30 mins followed by LPS stimulation measured after 24 hrs by ELISA; format: functional, cell-based
# Peritoneal macrophage [3] = test: Antiinflammatory activity in C57BL/6J mouse Primary peritoneal macrophages assessed as inhibition of LPS-stimulated TNF-alpha expression preincubated for 30 mins followed by LPS stimulation measured after 24 hrs by ELISA; format: functional, cell-based
# Peritoneal macrophage [4] = test: Antiinflammatory activity in C57BL/6J mouse Primary peritoneal macrophages assessed as suppression of LPS-stimulated IL-6 expression at 1 uM preincubated for 30 mins followed by LPS stimulation measured after 24 hrs by ELISA; format: functional, cell-based
# Peritoneal macrophage [5] = test: Antiinflammatory activity in C57BL/6J mouse Primary peritoneal macrophages assessed as suppression of LPS-stimulated TNF-alpha expression at 1 uM preincubated for 30 mins followed by LPS stimulation measured after 24 hrs by ELISA; format: functional, cell-based
# Mus musculus [6] = test: Antiinflammatory activity in LPS-induced C57BL/6 mouse model of acute lung injury assessed as reduction in IL-6 level in serum at 2.5 to 5 mg/kg, po pretreated for 3 days followed by LPS challenge measured after 6 hrs; format: functional, organism-based
# Mus musculus [7] = test: Antiinflammatory activity in LPS-induced C57BL/6 mouse model of acute lung injury assessed as reduction in lung wet/dry ratio at 2.5 to 5 mg/kg, po pretreated for 3 days followed by LPS challenge measured after 6 hrs; format: functional, organism-based
# Mus musculus [8] = test: Antiinflammatory activity in LPS-induced C57BL/6 mouse model of acute lung injury assessed as inhibition of interalveolar septal thickening at 2.5 to 5 mg/kg, po pretreated for 3 days followed by LPS challenge measured after 6 hrs by hematoxylin and eosin staining based microscopic analysis; format: functional, organism-based
# Mus musculus [9] = test: Antiinflammatory activity in LPS-induced C57BL/6 mouse model of acute lung injury assessed as reduction in VCAM1 mRNA expression at 2.5 to 5 mg/kg, po pretreated for 3 days followed by LPS challenge measured after 6 hrs by SYBR green dye based RT-qPCR analysis; format: functional, organism-based
# Mus musculus [10] = test: Antiinflammatory activity in LPS-induced C57BL/6 mouse model of acute lung injury assessed as reduction in neutrophil count in BALF at 2.5 to 5 mg/kg, po pretreated for 3 days followed by LPS challenge measured after 6 hrs; format: functional, organism-based
# Mus musculus [11] = test: Antiinflammatory activity in LPS-induced C57BL/6 mouse model of acute lung injury assessed as reduction in total protein level in BALF at 2.5 to 5 mg/kg, po pretreated for 3 days followed by LPS challenge measured after 6 hrs; format: functional, organism-based
# Mus musculus [12] = test: Antiinflammatory activity in po dosed C57BL/6 mouse model of acute lung injury assessed as reduction in LPS-stimulated IL-6 mRNA expression pretreated for 3 days followed by LPS challenge measured after 6 hrs by SYBR green dye based RT-qPCR; format: functional, organism-based
# Mus musculus [13] = test: Antiinflammatory activity in po dosed C57BL/6 mouse model of acute lung injury assessed as reduction in LPS-stimulated TNF-alpha mRNA expression pretreated for 3 days followed by LPS challenge measured after 6 hrs by SYBR green dye based RT-qPCR; format: functional, organism-based
# Mus musculus [14] = test: Antiinflammatory activity in po dosed C57BL/6 mouse model of acute lung injury assessed as reduction in LPS-stimulated VCAM1 mRNA expression pretreated for 3 days followed by LPS challenge measured after 6 hrs by SYBR green dye based RT-qPCR analysis; format: functional, organism-based
# Mus musculus [15] = test: Antiinflammatory activity in LPS-induced C57BL/6 mouse model of acute lung injury assessed as reduction in IL-1beta mRNA expression at 2.5 to 5 mg/kg, po pretreated for 3 days followed by LPS challenge measured after 6 hrs by SYBR green dye based RT-qPCR analysis; format: functional, organism-based
# Mus musculus [16] = test: Antiinflammatory activity in LPS-induced C57BL/6 mouse model of acute lung injury assessed as inhibition of destruction of alveolar structure at 2.5 to 5 mg/kg, po pretreated for 3 days followed by LPS challenge measured after 6 hrs by hematoxylin and eosin staining based microscopic analysis; format: functional, organism-based
# Mus musculus [17] = test: Antiinflammatory activity in LPS-induced C57BL/6 mouse model of acute lung injury assessed as reduction in IL-6 mRNA expression at 2.5 to 5 mg/kg, po pretreated for 3 days followed by LPS challenge measured after 6 hrs by SYBR green dye based RT-qPCR; format: functional, organism-based
# Mus musculus [18] = test: Antiinflammatory activity in LPS-induced C57BL/6 mouse model of acute lung injury assessed as reduction in TNF-alpha level in BALF at 2.5 to 5 mg/kg, po pretreated for 3 days followed by LPS challenge measured after 6 hrs; format: functional, organism-based
# Mus musculus [19] = test: Antiinflammatory activity in LPS-induced C57BL/6 mouse model of acute lung injury assessed as reduction in total protein levels in BALF at 2.5 to 5 mg/kg, po pretreated for 3 days followed by LPS challenge measured after 6 hrs; format: functional, organism-based
# Mus musculus [20] = test: Antiinflammatory activity in po dosed C57BL/6 mouse model of acute lung injury assessed as reduction in LPS-stimulated ICAM1 mRNA expression pretreated for 3 days followed by LPS challenge measured after 6 hrs by SYBR green dye based RT-qPCR analysis; format: functional, organism-based
# Mus musculus [21] = test: Antiinflammatory activity in LPS-induced C57BL/6 mouse model of acute lung injury assessed as reduction in ICAM1 mRNA expression at 2.5 to 5 mg/kg, po pretreated for 3 days followed by LPS challenge measured after 6 hrs by SYBR green dye based RT-qPCR analysis; format: functional, organism-based
# Mus musculus [22] = test: Antiinflammatory activity in LPS-induced C57BL/6 mouse model of acute lung injury assessed as inhibition of interstitial edema at 2.5 to 5 mg/kg, po pretreated for 3 days followed by LPS challenge measured after 6 hrs by hematoxylin and eosin staining based microscopic analysis; format: functional, organism-based
# Mus musculus [23] = test: Antiinflammatory activity in LPS-induced C57BL/6 mouse model of acute lung injury assessed as reduction in TNF-alpha level in serum at 2.5 to 5 mg/kg, po pretreated for 3 days followed by LPS challenge measured after 6 hrs; format: functional, organism-based
# Mus musculus [24] = test: Antiinflammatory activity in LPS-induced C57BL/6 mouse model of acute lung injury assessed as suppression of macrophage infiltration at 2.5 to 5 mg/kg, po pretreated for 3 days followed by LPS challenge measured after 6 hrs by F4/80/hematoxylin staining based microscopic analysis; format: functional, organism-based
# Mus musculus [25] = test: Antiinflammatory activity in po dosed C57BL/6 mouse model of acute lung injury assessed as reduction in LPS-stimulated IL-1beta mRNA expression pretreated for 3 days followed by LPS challenge measured after 6 hrs by SYBR green dye based RT-qPCR; format: functional, organism-based
# Mus musculus [26] = test: Antiinflammatory activity in LPS-induced C57BL/6 mouse model of acute lung injury assessed as reduction in IL-6 level in BALF at 2.5 to 5 mg/kg, po pretreated for 3 days followed by LPS challenge measured after 6 hrs; format: functional, organism-based
# Mus musculus [27] = test: Antiinflammatory activity in LPS-induced C57BL/6 mouse model of acute lung injury assessed as reduction in TNF-alpha mRNA expression at 2.5 to 5 mg/kg, po pretreated for 3 days followed by LPS challenge measured after 6 hrs by SYBR green dye based RT-qPCR analysis; format: functional, organism-based
# Mus musculus [28] = test: Antiinflammatory activity in LPS-induced C57BL/6 mouse model of acute lung injury assessed as inhibition of inflammatory cell infiltration at 2.5 to 5 mg/kg, po pretreated for 3 days followed by LPS challenge measured after 6 hrs by hematoxylin and eosin staining based microscopic analysis; format: functional, organism-based
# Mus musculus [29] = test: Antiinflammatory activity in LPS-induced C57BL/6 mouse model of acute lung injury assessed as inhibition of destruction of alveolar hemorrhage at 2.5 to 5 mg/kg, po pretreated for 3 days followed by LPS challenge measured after 6 hrs by hematoxylin and eosin staining based microscopic analysis; format: functional, organism-based
compound,measurement,setting,value
Cc1ccc2c(c1)cc(C)n2SC(=S)N(C)C,Activity,Peritoneal macrophage [1],Non-Toxic
CCN(CC)C(=S)Sn1c(C)cc2ccccc21,Activity,Peritoneal macrophage [1],Non-Toxic
CN(C)C(=S)Sn1ccc2cc(Br)ccc21,Activity,Peritoneal macrophage [1],Non-Toxic
S=C(Sn1ccc2ccccc21)N1CCCCCC1,IC50,Peritoneal macrophage [2],87.6 nM
same,inhibition,Peritoneal macrophage [2],Dose-dependent effect
same,IC50,Peritoneal macrophage [3],114 nM
same,inhibition,Peritoneal macrophage [3],Dose-dependent effect
same,Activity,Peritoneal macrophage [1],Non-Toxic
same,inhibition,Peritoneal macrophage [4],Active
same,inhibition,Peritoneal macrophage [5],Active
S=C(Sn1ccc2ccccc21)N1CCSCC1,IC50,Peritoneal macrophage [2],87.4 nM
same,inhibition,Peritoneal macrophage [2],Dose-dependent effect
same,IC50,Peritoneal macrophage [3],14.1 nM
same,inhibition,Peritoneal macrophage [3],Dose-dependent effect
same,Activity,Peritoneal macrophage [1],Non-Toxic
same,inhibition,Peritoneal macrophage [4],Active
same,inhibition,Peritoneal macrophage [5],Active
CN(C)C(=S)Sn1ccc2cc(F)ccc21,Activity,Peritoneal macrophage [1],Non-Toxic
Cc1c(C)n(SC(=S)N(C)C)c2ccccc12,Activity,Peritoneal macrophage [1],Non-Toxic
S=C(Sn1ccc2ccccc21)N1CCc2ccccc2C1,Activity,Peritoneal macrophage [1],Non-Toxic
CC1CCN(C(=S)Sn2ccc3ccccc32)CC1,Activity,Peritoneal macrophage [1],Non-Toxic
CN(C)C(=S)Sn1ccc2ccccc21,Activity,Peritoneal macrophage [1],Non-Toxic
S=C(Sn1ccc2ccccc21)N(Cc1ccccc1)Cc1ccccc1,Activity,Peritoneal macrophage [1],Non-Toxic
COc1ccc2c(ccn2SC(=S)N(C)C)c1,Activity,Peritoneal macrophage [1],Non-Toxic
S=C(Sn1ccc2ccccc21)N1CCCCC1,Activity,Peritoneal macrophage [1],Non-Toxic
S=C(Sn1ccc2ccccc21)N1CCOCC1,Activity,Peritoneal macrophage [1],Non-Toxic
Cc1cn(SC(=S)N(C)C)c2ccccc12,Activity,Mus musculus [6],Active
same,IC50,Peritoneal macrophage [2],14.6 nM
same,inhibition,Peritoneal macrophage [2],Dose-dependent effect
same,Activity,Mus musculus [7],Active
same,Activity,Mus musculus [8],Active
same,inhibition,Mus musculus [9],Active
same,Activity,Mus musculus [10],Active
same,Activity,Mus musculus [11],Active
same,inhibition,Mus musculus [12],Dose-dependent effect
same,IC50,Peritoneal macrophage [3],28.1 nM
same,inhibition,Peritoneal macrophage [3],Dose-dependent effect
same,inhibition,Mus musculus [13],Dose-dependent effect
same,inhibition,Mus musculus [14],Dose-dependent effect
same,inhibition,Mus musculus [15],Active
same,Activity,Mus musculus [16],Active
same,inhibition,Mus musculus [17],Active
same,Activity,Peritoneal macrophage [1],Non-Toxic
same,Activity,Mus musculus [18],Active
same,Activity,Mus musculus [19],Active
same,inhibition,Mus musculus [20],Dose-dependent effect
same,inhibition,Mus musculus [21],Active
same,Activity,Mus musculus [22],Active
same,Activity,Mus musculus [23],Active
same,inhibition,Peritoneal macrophage [4],Active
same,Activity,Mus musculus [24],Active
same,inhibition,Mus musculus [25],Dose-dependent effect
same,Activity,Mus musculus [26],Active
same,inhibition,Mus musculus [27],Active
same,Activity,Mus musculus [28],Active
same,Activity,Mus musculus [29],Active
same,inhibition,Peritoneal macrophage [5],Active
CN(C)C(=S)Sn1ccc2c(Br)cccc21,Activity,Peritoneal macrophage [1],Non-Toxic
COc1cccc2c1ccn2SC(=S)N(C)C,IC50,Peritoneal macrophage [2],70.7 nM
same,inhibition,Peritoneal macrophage [2],Dose-dependent effect
same,IC50,Peritoneal macrophage [3],107 nM
same,inhibition,Peritoneal macrophage [3],Dose-dependent effect
same,Activity,Peritoneal macrophage [1],Non-Toxic
same,inhibition,Peritoneal macrophage [4],Active
same,inhibition,Peritoneal macrophage [5],Active
S=C(Sn1ccc2ccccc21)N1CCC(Cc2ccccc2)CC1,Activity,Peritoneal macrophage [1],Non-Toxic
COC(=O)c1ccc2ccn(SC(=S)N(C)C)c2c1,Activity,Peritoneal macrophage [1],Non-Toxic
S=C(Sn1ccc2ccccc21)N1CCCC1,Activity,Peritoneal macrophage [1],Non-Toxic
COc1cccc2ccn(SC(=S)N(C)C)c12,Activity,Peritoneal macrophage [1],Non-Toxic
CN1CCN(C(=S)Sn2ccc3ccccc32)CC1,Activity,Peritoneal macrophage [1],Non-Toxic
Cc1cc2ccccc2n1SC(=S)N(C)C,Activity,Peritoneal macrophage [1],Non-Toxic
CCN(CC)C(=S)Sn1ccc2ccccc21,Activity,Peritoneal macrophage [1],Non-Toxic
Cc1ccc2ccn(SC(=S)N(C)C)c2c1,Activity,Peritoneal macrophage [1],Non-Toxic
CC1CCCC(C)N1C(=S)Sn1ccc2ccccc21 (configuration not stated),Activity,Peritoneal macrophage [1],Non-Toxic
CN(C)C(=S)Sn1ccc2ccc(N)cc21,Activity,Peritoneal macrophage [1],Non-Toxic
CN(C)C(=S)Sn1ccc2cc(Cl)ccc21,Activity,Peritoneal macrophage [1],Non-Toxic
CCOC(=O)C1CCCN(C(=S)Sn2ccc3ccccc32)C1 (configuration not stated),Activity,Peritoneal macrophage [1],Non-Toxic
